From PubChem BioAssay (NCI)
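GI50 = concentration required for 50% inhibition of growth. At the TGI there is no net growth.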

Assays:
Assay in all cases: growth of human tumour cells (NCI), 384-well format
MALME-3M melanoma = tested on: MALME-3M melanoma
CAKI-1 renal = tested on: CAKI-1 renal
SN12C renal = tested on: SN12C renal
COLO 205 colon = tested on: COLO 205 colon
HOP-62 NSCLC = tested on: HOP-62 NSCLC
HCT-116 colon = tested on: HCT-116 colon
U251 glioblastoma = tested on: U251 glioblastoma
EKVX NSCLC = tested on: EKVX NSCLC
LOX IMVI melanoma = tested on: LOX IMVI melanoma
HCC-2998 colon = tested on: HCC-2998 colon
SW-620 colon = tested on: SW-620 colon
SF-295 CNS = tested on: SF-295 CNS
CCRF-CEM leukemia = tested on: CCRF-CEM leukemia
NCI-H460 NSCLC = tested on: NCI-H460 NSCLC
IGROV1 ovarian = tested on: IGROV1 ovarian
HOP-92 NSCLC = tested on: HOP-92 NSCLC
SK-MEL-28 melanoma = tested on: SK-MEL-28 melanoma
SNB-19 CNS = tested on: SNB-19 CNS
HS 578T breast = tested on: HS 578T breast
SNB-75 CNS = tested on: SNB-75 CNS
SK-OV-3 ovarian = tested on: SK-OV-3 ovarian
ACHN renal = tested on: ACHN renal
HT29 colon = tested on: HT29 colon
HL-60(TB) leukemia = tested on: HL-60(TB) leukemia
BT-549 breast = tested on: BT-549 breast
UACC-257 melanoma = tested on: UACC-257 melanoma
SK-MEL-5 melanoma = tested on: SK-MEL-5 melanoma
MDA-MB-435 melanoma = tested on: MDA-MB-435 melanoma
NCI/ADR-RES ovarian = tested on: NCI/ADR-RES ovarian
SF-268 CNS = tested on: SF-268 CNS
TK-10 renal = tested on: TK-10 renal
OVCAR-8 ovarian = tested on: OVCAR-8 ovarian
UACC-62 melanoma = tested on: UACC-62 melanoma
PC-3 prostate = tested on: PC-3 prostate
A498 renal = tested on: A498 renal
UO-31 renal = tested on: UO-31 renal
RXF 393 renal = tested on: RXF 393 renal
SF-539 CNS = tested on: SF-539 CNS
KM12 colon = tested on: KM12 colon
M14 melanoma = tested on: M14 melanoma
DU-145 prostate = tested on: DU-145 prostate
RPMI-8226 leukemia = tested on: RPMI-8226 leukemia
OVCAR-4 ovarian = tested on: OVCAR-4 ovarian
MDA-MB-468 breast = tested on: MDA-MB-468 breast
NCI-H522 lung = tested on: NCI-H522 lung
MOLT-4 leukemia = tested on: MOLT-4 leukemia
K-562 leukemia = tested on: K-562 leukemia
SK-MEL-2 melanoma = tested on: SK-MEL-2 melanoma
MDA-MB-231 breast = tested on: MDA-MB-231 breast
NCI-H226 lung = tested on: NCI-H226 lung
OVCAR-3 ovarian = tested on: OVCAR-3 ovarian
NCI-H23 lung = tested on: NCI-H23 lung
NCI-H322M lung = tested on: NCI-H322M lung
MCF7 breast = tested on: MCF7 breast
A549 NSCLC = tested on: A549 NSCLC
OVCAR-5 ovarian = tested on: OVCAR-5 ovarian
HCT-15 colon = tested on: HCT-15 colon
T-47D breast = tested on: T-47D breast
786-0 renal = tested on: 786-0 renal

## Cc1cc(-c2cnn3c(NCC4CC(C)(O)C4)cc(Oc4cccnc4)nc23)ccc1C(=O)NC1CC1 (stereo not given)
MALME-3M melanoma
  GI50: 1090 nM
  TGI: > 100000 nM
CAKI-1 renal
  GI50: 560 nM
  TGI: 94500 nM
SN12C renal
  GI50: 1810 nM
  TGI: > 100000 nM
COLO 205 colon
  GI50: 39.4 nM
  TGI: > 100000 nM
HOP-62 NSCLC
  GI50: 83.4 nM
  TGI: > 100000 nM
HCT-116 colon
  GI50: 49 nM
  TGI: > 100000 nM
U251 glioblastoma
  GI50: 65 nM
  TGI: > 100000 nM
EKVX NSCLC
  GI50: 1780 nM
  TGI: > 100000 nM
LOX IMVI melanoma
  GI50: 49.5 nM
  TGI: > 100000 nM
HCC-2998 colon
  GI50: 5560 nM
  TGI: > 100000 nM
SW-620 colon
  GI50: 62.1 nM
  TGI: > 100000 nM
SF-295 CNS
  GI50: 1860 nM
  TGI: > 100000 nM
CCRF-CEM leukemia
  GI50: 23.9 nM
  TGI: 50.7 nM
NCI-H460 NSCLC
  GI50: 188 nM
  TGI: 11900 nM
IGROV1 ovarian
  GI50: 1010 nM
  TGI: > 100000 nM
HOP-92 NSCLC
  GI50: 4880 nM
  TGI: > 100000 nM
SK-MEL-28 melanoma
  GI50: 11300 nM
  TGI: > 100000 nM
SNB-19 CNS
  GI50: > 100000 nM
  TGI: > 100000 nM
HS 578T breast
  GI50: 324 nM
  TGI: 38400 nM
SNB-75 CNS
  GI50: 1910 nM
  TGI: > 100000 nM
SK-OV-3 ovarian
  GI50: 903 nM
  TGI: > 100000 nM
ACHN renal
  GI50: 906 nM
  TGI: > 100000 nM
HT29 colon
  GI50: 2110 nM
  TGI: > 100000 nM
HL-60(TB) leukemia
  GI50: 29.3 nM
  TGI: 63.6 nM
BT-549 breast
  GI50: 139 nM
  TGI: > 100000 nM
UACC-257 melanoma
  GI50: 30700 nM
  TGI: > 100000 nM
SK-MEL-5 melanoma
  GI50: 74.5 nM
  TGI: > 100000 nM
MDA-MB-435 melanoma
  GI50: 6160 nM
  TGI: > 100000 nM
NCI/ADR-RES ovarian
  GI50: 5900 nM
  TGI: > 100000 nM
SF-268 CNS
  GI50: 2180 nM
  TGI: > 100000 nM
TK-10 renal
  GI50: 442 nM
  TGI: > 100000 nM
OVCAR-8 ovarian
  GI50: 80.4 nM
  TGI: > 100000 nM
UACC-62 melanoma
  GI50: 972 nM
  TGI: 62100 nM
PC-3 prostate
  GI50: 1840 nM
  TGI: > 100000 nM
A498 renal
  GI50: 92.1 nM
  TGI: > 100000 nM
UO-31 renal
  GI50: 686 nM
  TGI: > 100000 nM
RXF 393 renal
  GI50: 64.5 nM
  TGI: 2980 nM
SF-539 CNS
  GI50: 45.5 nM
  TGI: > 100000 nM
KM12 colon
  GI50: 67.3 nM
  TGI: > 100000 nM
M14 melanoma
  GI50: 245 nM
  TGI: > 100000 nM
DU-145 prostate
  GI50: 68.9 nM
  TGI: > 100000 nM
RPMI-8226 leukemia
  GI50: 305 nM
  TGI: 995 nM
OVCAR-4 ovarian
  GI50: 5590 nM
  TGI: > 100000 nM
MDA-MB-468 breast
  GI50: 352 nM
  TGI: 4670 nM
NCI-H522 lung
  GI50: 467 nM
  TGI: 33000 nM
MOLT-4 leukemia
  GI50: 22.7 nM
  TGI: 43.1 nM
K-562 leukemia
  GI50: 818 nM
  TGI: > 100000 nM
SK-MEL-2 melanoma
  GI50: 431 nM
  TGI: 3540 nM
MDA-MB-231 breast
  GI50: 735 nM
  TGI: > 100000 nM
NCI-H226 lung
  GI50: 77300 nM
  TGI: > 100000 nM
OVCAR-3 ovarian
  GI50: 173 nM
  TGI: 87900 nM
NCI-H23 lung
  GI50: 374 nM
  TGI: > 100000 nM
NCI-H322M lung
  GI50: 4570 nM
  TGI: 21200 nM
MCF7 breast
  GI50: 17200 nM
  TGI: > 100000 nM
A549 NSCLC
  GI50: 90.2 nM
  TGI: > 100000 nM
OVCAR-5 ovarian
  GI50: 1980 nM
  TGI: > 100000 nM

## Cc1ccc(C(=O)N(CCCN)C(c2oc3cc(Cl)ccc3c(=O)c2Cc2ccccc2)C(C)C)cc1 (stereo not given)
MALME-3M melanoma
  GI50: < 10 nM
  TGI: 1740 nM
CAKI-1 renal
  GI50: < 10 nM
  TGI: 1950 nM
SN12C renal
  GI50: < 10 nM
  TGI: 1880 nM
COLO 205 colon
  GI50: < 10 nM
  TGI: < 10 nM
HOP-62 NSCLC
  GI50: < 10 nM
  TGI: 1760 nM
HCT-116 colon
  GI50: < 10 nM
  TGI: 1210 nM
U251 glioblastoma
  GI50: < 10 nM
  TGI: 1460 nM
EKVX NSCLC
  GI50: < 10 nM
  TGI: 1920 nM
LOX IMVI melanoma
  GI50: < 10 nM
  TGI: 1810 nM
HCC-2998 colon
  GI50: < 10 nM
  TGI: 542 nM
SW-620 colon
  GI50: < 10 nM
  TGI: 275 nM
SF-295 CNS
  GI50: < 10 nM
  TGI: 1510 nM
CCRF-CEM leukemia
  GI50: < 10 nM
  TGI: < 10 nM
NCI-H460 NSCLC
  GI50: < 10 nM
  TGI: < 10 nM
IGROV1 ovarian
  GI50: 511 nM
  TGI: 2140 nM
SK-MEL-28 melanoma
  GI50: 1310 nM
  TGI: 2600 nM
SNB-19 CNS
  GI50: < 10 nM
  TGI: 1460 nM
HS 578T breast
  GI50: < 10 nM
  TGI: < 10 nM
SNB-75 CNS
  GI50: < 10 nM
  TGI: 1810 nM
SK-OV-3 ovarian
  GI50: < 10 nM
  TGI: 1780 nM
ACHN renal
  GI50: 1160 nM
  TGI: 2420 nM
HT29 colon
  GI50: < 10 nM
  TGI: < 10 nM
HL-60(TB) leukemia
  GI50: < 10 nM
  TGI: < 10 nM
BT-549 breast
  GI50: < 10 nM
  TGI: 1360 nM
SK-MEL-5 melanoma
  GI50: < 10 nM
  TGI: < 10 nM
MDA-MB-435 melanoma
  GI50: < 10 nM
  TGI: < 10 nM
NCI/ADR-RES ovarian
  GI50: 129 nM
  TGI: 286 nM
SF-268 CNS
  GI50: < 10 nM
  TGI: < 10 nM
TK-10 renal
  GI50: 1540 nM
  TGI: 2900 nM
UACC-62 melanoma
  GI50: < 10 nM
  TGI: 1290 nM
PC-3 prostate
  GI50: < 10 nM
  TGI: 1550 nM
A498 renal
  GI50: 29 nM
  TGI: 2010 nM
UO-31 renal
  GI50: 1110 nM
  TGI: 2340 nM
SF-539 CNS
  GI50: < 10 nM
  TGI: 1260 nM
KM12 colon
  GI50: < 10 nM
  TGI: 1180 nM
M14 melanoma
  GI50: < 10 nM
  TGI: < 10 nM
DU-145 prostate
  GI50: < 10 nM
  TGI: 1100 nM
RPMI-8226 leukemia
  GI50: < 10 nM
  TGI: < 10 nM
OVCAR-4 ovarian
  GI50: 1270 nM
  TGI: 2560 nM
MDA-MB-468 breast
  GI50: < 10 nM
  TGI: < 10 nM
NCI-H522 lung
  GI50: < 10 nM
  TGI: < 10 nM
MOLT-4 leukemia
  GI50: < 10 nM
  TGI: < 10 nM
K-562 leukemia
  GI50: < 10 nM
  TGI: < 10 nM
HCT-15 colon
  GI50: < 10 nM
  TGI: 1230 nM
MDA-MB-231 breast
  GI50: < 10 nM
  TGI: 1840 nM
NCI-H226 lung
  GI50: 1500 nM
  TGI: 2840 nM
T-47D breast
  GI50: < 10 nM
  TGI: < 10 nM
786-0 renal
  GI50: < 10 nM
  TGI: 1390 nM
OVCAR-3 ovarian
  GI50: < 10 nM
  TGI: < 10 nM
NCI-H23 lung
  GI50: < 10 nM
  TGI: < 10 nM
NCI-H322M lung
  GI50: < 10 nM
  TGI: 2030 nM
MCF7 breast
  GI50: < 10 nM
  TGI: 1370 nM
A549 NSCLC
  GI50: < 10 nM
  TGI: 1590 nM
OVCAR-5 ovarian
  GI50: < 10 nM
  TGI: 1570 nM
